Patent publication US20220378738A1, “(+)-TRANS TETRAHYDROCANNABINOL ((+)-TRANS-THC) FOR USE AS A MEDICAMENT” (GW Research Limited, priority 2019, published 2022)
Marks after values point to notes of the source that are not given here.

Experiments:
[1] = system: mouse supramaximal electroshock seizure (MES) model of generalized seizures; assay: Maximal electroshock (MES) test, number of tonic convulsions; type: in vivo; conditions: for % change from vehicle (number of tonic clonic seizures after MES): 250 mg/kg I.P., pre-treatment time 30 mins, N 16
Procedure: Mice were administered MES (30 mA, rectangular current: 0.6 ms pulse width, 0.2 s duration, 50 Hz) via corneal electrodes connected to a constant current shock generator (Ugo Basile: type 7801) to reliably produce tonic hind limb convulsions. The number of tonic convulsions was recorded.
Sixteen mice were studied per group. The test was performed blind.
The test substance, (+)-trans-THC, was evaluated at 4 doses (3, 10, 30 and 300 mg/kg), administered i.p. 60 minutes before MES, and compared with a vehicle control group (administered under the same experimental conditions).
Valproate (positive control) was administered at 250 mg/kg i.p. 30 minutes before MES, was used as a reference substance and was compared with a vehicle group (administered i.p. 60 minutes before MES).
Data was analysed by comparing treated groups with the appropriate vehicle control using 2-tailed Fisher's Exact Probability tests (p<0.05 considered significant).

[2] = system: mouse model of pain, the hotplate test; assay: Hotplate test (52° C.), withdrawal threshold; type: in vivo; conditions: for Withdrawal threshold (sec) Mean +/− SEM: N 13
Procedure: Mice underwent a minimum habituation period of 7 days prior to study commencement. Naïve mice were acclimatised to the procedure room in their home cages, with food and water available ad libitum.
Animals were treated with either treatment vehicle, (+)-trans-THC at 3, 10, 30 and 300 mg/kg at 10 ml/kg i.p. or Morphine 10 mg/kg or Morphine vehicle (Saline) at 10 ml/kg i.p.
Animals were placed onto a hot plate set at 52° C. and time to withdrawal threshold (first response of lifting, licking front or hind paws or trying to escape) was taken at 1-hour post treatment, or at 0.5 hour after the positive control.
Animals were culled by a schedule 1 method, immediately after the measurement.
Data were analysed by comparing withdrawal thresholds back to Vehicle treated group.

[3] = depending on the assay; cited from earlier work

## CCCCCc1cc(O)c2c(c1)OC(C)(C)[C@H]1CCC(C)=C[C@H]21 (relative stereo) [(+)-trans-THC, (+)-trans-tetrahydrocannabinol]
[1]; 3, 10, 30 and 300 mg/kg i.p.
  Anti-convulsant effect in the MES model (overall conclusion): no anti-convulsant effect
[2]; 3 mg/kg I.P., 1-hour post treatment
  Withdrawal threshold (sec) Mean +/− SEM: 11.05 ± 0.72 s
[2]; 10 mg/kg I.P., 1-hour post treatment
  Withdrawal threshold (sec) Mean +/− SEM: 12.63 ± 0.81 s
[2]; 30 mg/kg I.P., 1-hour post treatment
  Withdrawal threshold (sec) Mean +/− SEM: 13.38 ± 1.03 s
[2]; hotplate, 3-300 mg/kg i.p.
  Anti-nociceptive effect in an animal model of pain (overall conclusion): exhibits an anti-nociceptive effect

## CCCCCc1cc(O)c2c(c1)OC(C)(C)[C@@H]1CCC(C)=C[C@@H]21 [(−)-trans-THC, (−)-trans-tetrahydrocannabinol]
[3]
  Potency relative to the (+)-trans-THC isomer: 6-100 times

## CN1CC[C@]23c4c5ccc(O)c4O[C@H]2[C@@H](O)C=C[C@H]3[C@H]1C5 [Morphine]
[2]; 10 mg/kg I.P., 0.5 hour after treatment
  Withdrawal threshold (sec) Mean +/− SEM: 20.25 +/− 1.71 *** sec
[2]; 10 mg/kg I.P., 0.5 hour after treatment, listed as morphine
  Withdrawal threshold (sec) Mean +/− SEM: significant increase in the withdrawal threshold compared to vehicle

## CCCC(CCC)C(=O)O [Valproate]
[1]
  % change from vehicle (number of tonic clonic seizures after MES): 100.0%
[1]; listed as valproate
  % change from vehicle (number of tonic clonic seizures after MES): 100%
